Patent US8937154B2, “Stabilized therapeutic small helical antiviral peptides” (priority 2006, dated 2015)
Where a SMILES comes first, the peptide text is derived from it. Bridges are numbered along the chain shown (N, C = ends). [ ]: non-standard residue; d: D form. The star is where a group is joined. FITC = O=C1OC2(c3ccc(O)cc3Oc3cc(O)ccc32)c2ccc(NC(=S)*)cc21; R8 = C=CCCCCCC[C@@](C)(N)C(=O)O; S5 = C=CCCC[C@](C)(N)C(=O)O; βAla = NCCC(=O)O

Tests used:
[1] = tested on: HIV-1 gag-mStrawberry fusion protein; experiment: Direct colocalization with gag by confocal microscopy; format: cell-based; conditions: 293T cells transfected with pEF6A-gag-mStrawberry; near the plasma membrane
Procedure: A direct colocalization study was performed by transfecting 293T cells with pEF6A-gag-mStrawberry for 4 hr and then washing cells once with PBS. A serum-free or serum-containing medium containing FITC-conjugated peptide was added for another 20 hr culture. After three washes, the cells were examined and imaged under a Zeiss LSM510 laser scanning confocal microscope.

HIV-1 IIIB [2] = format: cell-based
Procedure: The inhibitory activity of the constrained peptide described in Example 1 on infection by laboratory-adapted HIV-1 strains was determined as described in Jiang et al. (1991).

HIV-1 IIIB [3] = experiment: Western blot of p24 and p55 after treatment of HIV-1 IIIB infected MT-2 cells; format: cell-based; conditions: anti-p24 mAb, graded concentrations, vs positive untreated control
Procedure: Control cells were uninfected MT-2 or infected and untreated MT-2. Following overnight incubation the culture supernatant was completely removed and replaced with fresh medium. On the fourth day post-infection cells and virus supernatants were harvested. The supernatants were filtered and ultra-centrifuged through a 20% sucrose cushion for 2 hr at 27,000 rpm with a SW28 rotor to concentrate the viral particles. Viral pellets were slowly re-suspended and lysed. Cells were collected and processed for protein extraction. […] Proteins were then visualized by Western Blot and immuno-detected with HIV-1 anti-p24 gag mAb.
Same amounts of viral and cellular proteins were immunodetected with an anti-p24 mAb.

HIV-IIIB = experiment: Viral re-infection assay: infectivity of virions released by treated HIV-1 infected MT-2 cells; format: cell-based
Procedure: The infectivity potential of the virions released by HIV-1 infected MT-2 cells treated with different concentrations of small stapled peptides. […] Control cells were untreated or treated with 1 ug/ml of AMD3100 (CXCR-4 receptor inhibitor). Following overnight incubation the medium was completely removed and replaced with fresh medium. On the fourth day post-infection the supernatants were collected. One aliquot of each sample was mixed 1:1 with a solution of 5% Triton X-100 for p24 quantification, and stored at 4° C., another aliquot was immediately frozen at −80° C. and used to compare the infectivity of the viral particles released by treated cells to the viral particles released by untreated cells. Following p24 quantification by sandwich-ELISA MT-2 cells were infected with viral samples normalized for the p24 content to calculate the TCID50. Following overnight incubation ¾ of the medium containing the inoculum was replaced with fresh medium. On the fourth day post infection supernatants were collected for p24 quantification and the TCID50 was calculated by the Spearman-Karber statistical method.
Therefore, to infect MT-2 cells we used the maximum quantities of supernatants possible.

[4] = Circular dichroism, secondary structure in solution; format: physicochemical; conditions: 25° C., 1×PBS, 1-20% acetonitrile, 100 μM peptide
Procedure: We used circular dichroism (CD) to characterize the secondary structure of NYAD-1 and CAI in the uncomplexed state in solution. CD spectra were obtained on a Jasco J-715 Spectropolarimeter (Jasco Inc.) at 20° C. using the standard measurement parameters in Tris-HCl buffer (20 mM Tris, pH 8.0) in the presence of 1-15% (v/v) acetonitrile at a final concentration of 125-500 μM. In all the samples, the final concentrations of peptides and salt were always the same, and the spectra were corrected by subtracting the CD spectra of the appropriate reference solvent. Percent α-helix was calculated from molar ellipticity value at 222 nm.
The CD spectra were measured at 25° C. in 1×PBS in the presence of 1-20% (v/v) acetonitrile at a final concentration of peptide of 100 μM.
We used CD spectroscopy to determine the secondary structure characteristics of the stapled peptide NYAD-36. The corresponding linear peptide, NYAD-41, was used as control.

With “FITC-conjugated NYAD-1: NYAD-1 N-terminally derivatized with β-Ala and FITC ({FITC-βAla}-ITF[S5]DLL[S5]YYGP-NH2; staple 4-8; also: X4, X8 also described as (S)-2-(2'-pentenyl)alanine)” as the compound, how does the “colocalization with gag-mStrawberry” value [1] read?
The value was “significant fraction colocalized”.

What does the source list for `CC[C@H](C)[C@H](N)C(=O)N[C@H](C(=O)N[C@@H](Cc1ccccc1)C(=O)N[C@@]1(C)CCC/C=C\CCC[C@@](C)(C(=O)N[C@@H](Cc2ccc(O)cc2)C(=O)N[C@@H](Cc2ccc(O)cc2)C(=O)NCC(=O)N[C@@H](CCC(=O)O)C(=O)N[C@@H](CCCCN)C(N)=O)NC(=O)[C@H](CC(C)C)NC(=O)[C@H]([C@@H](C)CC)NC(=O)[C@H](CC(=O)O)NC1=O)[C@@H](C)O` [NYAD-23] (H-ITF[S5]DIL[S5]YYGEK-NH2; staple (Z) 4-8; N-terminus and C-terminus assumed)?
IC50 (HIV-1 IIIB [2]): 9.1 ± 0.74 µM; p24 and p55 levels in the cellular preparation (HIV-1 IIIB [3]): dose-dependent decrease; p24 and p55 levels in the viral preparation (viral lysates) (HIV-1 IIIB [3]): dose-dependent decrease

Which “viral infectivity of particles released by treated cells” value (“viral infectivity of particles released” for short) (HIV-IIIB; 1 ug/ml) does the source give for `c1cc(CN2CCCNCCNCCCNCC2)ccc1CN1CCCNCCNCCCNCC1` [AMD3100, reference compound] here?
Its value is “very little to no viral infectivity”.

With `CC[C@H](C)[C@H](N)C(=O)N[C@H](C(=O)N[C@@H](Cc1ccccc1)C(=O)N[C@@]1(C)CCC/C=C\CCC[C@@](C)(C(=O)N[C@@H](Cc2ccc(O)cc2)C(=O)N[C@@H](Cc2ccc(O)cc2)C(=O)NCC(=O)N[C@@H](CCCNC(=N)N)C(N)=O)NC(=O)[C@H](CC(C)C)NC(=O)[C@H](Cc2c[nH]c3ccccc23)NC(=O)[C@H](CC(=O)O)NC1=O)[C@@H](C)O` [NYAD-31] (H-ITF[S5]DWL[S5]YYGR-NH2; staple (Z) 4-8; N-terminus and C-terminus assumed) as the compound, how does the IC50 (HIV-1 IIIB [2]) read?
The IC50 was 13.5 ± 1.4 µM.

For `CC[C@H](C)[C@H](N)C(=O)N[C@@H](CO)C(=O)N[C@@H](Cc1ccccc1)C(=O)N[C@@]1(C)CCC/C=C\CCC[C@@](C)(C(=O)N[C@@H](Cc2ccc(O)cc2)C(=O)N[C@@H](Cc2ccc(O)cc2)C(=O)NCC(=O)N[C@@H](CCC(=O)O)C(=O)N[C@@H](CO)C(=O)NCC(=O)N[C@@H](CO)C(N)=O)NC(=O)[C@H](CC(C)C)NC(=O)[C@H]([C@@H](C)CC)NC(=O)[C@H](CCC(=O)O)NC1=O` [NYAD-37] (H-ISF[S5]EIL[S5]YYGESGS-NH2; staple (Z) 4-8; N-terminus and C-terminus assumed), which “viral infectivity of particles released” value (HIV-IIIB; 15 μM) is on record?
Its value is “very little to no viral infectivity”.

What about the “viral infectivity of particles released” value (HIV-IIIB; 30 μM) of the same compound?
Its value is “very little to no viral infectivity”.

What about the IC50 (HIV-1 IIIB [2]) of the same compound?
Its IC50 is 8 ± 0.36 µM.

What about the “p24 and p55 levels in the cellular preparation” value (HIV-1 IIIB [3]) of the same compound?
Its value is “dose-dependent decrease”.

What about the “p24 and p55 levels in the viral preparation (viral lysates)” value (HIV-1 IIIB [3]) of the same compound?
Its value is “dose-dependent decrease”.

For “NYAD-41: SEQ ID NO:20, linear peptide corresponding to NYAD-36, used as control (ISFDELLDYYGESGS; Linear peptide NYAD-41)”, which “secondary structure by CD” value [4] is on record?
The value was “random nature”.

Which “viral infectivity of particles released” value (HIV-IIIB; 7 μM) does the source give for `CC[C@H](C)[C@H](N)C(=O)N[C@@H](CO)C(=O)N[C@@H](Cc1ccccc1)C(=O)N[C@]1(C)CCCCCC/C=C\CCC[C@@](C)(C(=O)N[C@@H](CCCNC(=N)N)C(N)=O)NC(=O)[C@H](Cc2ccc(O)cc2)NC(=O)[C@H](Cc2ccc(O)cc2)NC(=O)[C@H](CCC(N)=O)NC(=O)[C@H](CC(C)C)NC(=O)[C@H](Cc2c[nH]c3ccccc23)NC(=O)[C@H](CCC(=O)O)NC1=O` [NYAD-33] (H-ISF[R8]EWLQYY[S5]R-NH2; staple (Z) 4-11; N-terminus and C-terminus assumed) here?
The value was “very little to no viral infectivity”.

What about the “viral infectivity of particles released” value (HIV-IIIB; 14 μM) of the same compound?
Its value is “very little to no viral infectivity”.

What about the “infectivity respect to the control” value (HIV-IIIB; about 7 μM) of the same compound?
Its value is 25%.

And the IC50 (HIV-1 IIIB [2])?
Its IC50 is 3.37 ± 0.06 µM.

Which IC50 (HIV-1 IIIB [2]) does the source give for `CC[C@H](C)[C@H](N)C(=O)N[C@@H](CO)C(=O)N[C@@H](Cc1ccccc1)C(=O)N[C@@]1(C)CCC/C=C\CCC[C@@](C)(C(=O)N[C@@H](Cc2ccc(O)cc2)C(=O)N[C@@H](Cc2ccc(O)cc2)C(=O)NCC(=O)N[C@@H](CCC(=O)O)C(=O)N[C@@H](CCCCN)C(N)=O)NC(=O)[C@H](CC(C)C)NC(=O)[C@H](CC(C)C)NC(=O)[C@H](CCC(=O)O)NC1=O` [NYAD-24] (H-ISF[S5]ELL[S5]YYGEK-NH2; staple (Z) 4-8; N-terminus and C-terminus assumed) here?
Its IC50 is 13.8 ± 3.57 µM.

Which IC50 (HIV-1 IIIB [2]) does the source give for `CC[C@H](C)[C@H](N)C(=O)N[C@@H](CO)C(=O)N[C@@H](Cc1ccccc1)C(=O)N[C@@]1(C)CCC/C=C\CCC[C@@](C)(C(=O)N[C@@H](Cc2ccc(O)cc2)C(=O)N[C@@H](Cc2ccc(O)cc2)C(=O)NCC(=O)N[C@@H](CCCNC(=N)N)C(=O)N[C@@H](CO)C(=O)NCC(=O)N[C@@H](CO)C(N)=O)NC(=O)[C@H](CC(C)C)NC(=O)[C@H](CC(C)C)NC(=O)[C@H](CCC(=O)O)NC1=O` [NYAD-34] (H-ISF[S5]ELL[S5]YYGRSGS-NH2; staple (Z) 4-8; N-terminus and C-terminus assumed) here?
The IC50 was 12.7 ± 0.9 µM.

Which IC50 (HIV-1 IIIB [2]) does the source give for `CC[C@H](C)[C@H](N)C(=O)N[C@@H](CO)C(=O)N[C@@H](Cc1ccccc1)C(=O)N[C@@]1(C)CCC/C=C\CCC[C@@](C)(C(=O)N[C@@H](Cc2ccc(O)cc2)C(=O)N[C@@H](Cc2ccc(O)cc2)C(=O)NCC(=O)N[C@@H](CCC(=O)O)C(=O)N[C@@H](CO)C(=O)NCC(=O)N[C@@H](CO)C(N)=O)NC(=O)[C@H](CC(C)C)NC(=O)[C@H](CC(C)C)NC(=O)[C@H](CCC(=O)O)NC1=O` [NYAD-35] (H-ISF[S5]ELL[S5]YYGESGS-NH2; staple (Z) 4-8; N-terminus and C-terminus assumed) here?
Its IC50 is 4.51 ± 0.14 µM.

For `CC[C@H](C)[C@H](N)C(=O)N[C@@H](CO)C(=O)N[C@@H](Cc1ccccc1)C(=O)N[C@@]1(C)CCC/C=C\CCC[C@@](C)(C(=O)N[C@@H](Cc2ccc(O)cc2)C(=O)N[C@@H](Cc2ccc(O)cc2)C(=O)NCC(=O)N[C@@H](CCCNC(=N)N)C(N)=O)NC(=O)[C@H](CC(C)C)NC(=O)[C@H](CC(C)C)NC(=O)[C@H](CCC(=O)O)NC1=O` [NYAD-15] (H-ISF[S5]ELL[S5]YYGR-NH2; staple (Z) 4-8; N-terminus and C-terminus assumed), which IC50 (HIV-1 IIIB [2]) is on record?
Its IC50 is 4.86 ± 1.55 µM.

And the “p24 and p55 levels in the cellular preparation” value (HIV-1 IIIB [3])?
The value was “dose-dependent decrease”.

What about the “p24 and p55 levels in the viral preparation (viral lysates)” value (HIV-1 IIIB [3]) of the same compound?
Its value is “dose-dependent decrease”.
